In patent US20080108706A1, “Chemical resection of pancreas” (priority 1999, published 2008):

Key:
[1] = system: Pancreatic Ductal Adenocarcinoma #03; experiment: Evaluation against early stage pancreatic ductal adenocarcinoma #03 in BDF mice; assay type: in vivo
Excerpt: Male BDF mice (12 weeks old, weight approximately 28.9 g) were implanted with the pancreatic ductal cell carcinoma #03 3 days before beginning treatment with (HO)2DEHSPM.

[2] = Non-tumor-bearing toxicity controls, same regimens; assay type: in vivo
[3] = system: pancreatic native polyamine pools; experiment: Tissue drug and native polyamine levels (pancreas, liver) in treated dogs; assay type: in vivo, beagles
Excerpt: The two dogs (#490 and 494) were fed a prescription canned and dry dog food and were supplemented with Viokase, a pancreatic enzyme preparation, by mixing three tablets with food or by oral administration immediately before each feeding. The dogs were maintained on this regimen for approximately three weeks. During this time, their weight and blood chemistries were closely monitored. The Viokase supplementation was then stopped and the same parameters were again evaluated. One week after the Viokase administration had ceased, the animals were euthanized and tissues were taken for histology and for the determination of tissue polyamine levels.
As the pancreatic insufficiency side-effect that was observed after the administration of the (R,R)—(HO)2DEHSPM to the beagles may have been related to the (R,R)-chirality of the molecule, the (S,S)-enantiomer was synthesized and was compared in a head-to-head fashion with the (R,R)-enantiomer. To perform this experiment, five male beagles approximately 6-8 months of age were obtained from Harlan Sprague Dawley. There were provided with food and water ad libitum and were allowed to acclimate to their new surroundings for two weeks. The animals were weighed prior to starting drug administration and were weighed once per week during the drug dosing period. A CBC and chemistry panel and a Holter monitor were performed once per week. In addition to the usual tests, additional pancreatic function-specific tests were also performed. These additional evaluations included a fecal trypsin test, examination of the feces for fecal fat and serum trypsin-like immunoreactivity determinations. It was hoped that these signs of pancreatic insufficiency would only appear in the animals given the (R,R)-enantiomer and would not be observed in the dogs that were given the (S,S)-molecule. The pancreatic insufficiency may not become evident until approximately 7-8 weeks post-drug. At the conclusion of the experiment, all of the animals were sacrificed and the histology and tissue polyamine levels were determined.
• 1. Dogs #468 and 500 were given (R,R)—(HO)2DEHSPM subcutaneously twice daily for 13 days. • 2. They were fed Purina Dog Chow ad libitum and given free access to water. • 3. Polyamine levels in the pancreas were also analyzed at several time points post-drug. • 4. At the start of the experiment, dog #468 weighed 14.4 kg and dog #500 weighed 12.8 kg. The latter animal's weight never exceeded 13.2 kg. At the end of the drug dosing period, dog #468 weighed 13.0 kg, a loss of 1.4 kg; dog #500 weighed 13.2 kg, a gain of 0.4 kg. • 5. […] The pancreatic native polyamine pools (most especially SPD) were markedly diminished compared to untreated control tissue: [SPM]control=3,985 μm v. [SPM10-days post-treatment=2,548 μm (64% of control) [SPD]control=2,820 μm v [SPD]10-days post-treatment=721 μm (25.6% of control) • 6. Dog #468 was bright, alert and responsive until day thirteen of drug administration. […] The dog was fed boiled chicken and rice, as well as Nutrical (a caloric supplement) and cat food and was slowly weaned back to regular dog food. Frank and/or occult blood was found in the dog's stool until about 17-days post-drug. • 7. Dog #500 was bright, alert and responsive throughout the experiment. […] However, stool consistency had normalized by one week post-drug. • 8. […] The inability to digest fats was confirmed when this test was repeated and the fatty meal was supplemented with Viokase (a pancreatic enzyme supplement). […] (2.15 mg/kg every 12 hours) for 13 days • Route: subcutaneously • 1. Dogs #440 and 476 were given (S,S)— (HO)2DEHSPM subcutaneously twice daily for 13 days. • […]. They were fed Purina Dog Chow ad libitum and given free access to water. • 3. At the start of the experiment, dog #440 weighed 11.8 kg.
Two animals were also treated with DEHSPM at a dose equimolar to the (HO)2DEHSPM dosage and sacrificed at 1- and 75-days after the final treatment. […]

[4] = system: pancreas; experiment: Pancreas anatomy and function in DEHSPM-treated animals; assay type: in vivo; settings: equimolar dose
Procedure: Two animals were also treated with DEHSPM at a dose equimolar to the (HO)2DEHSPM dosage and sacrificed at 1- and 75-days after the final treatment. […] At 1-day post-treatment, the total amount of drug: (parent+metabolites)1-day post-treatment=951 μm. […] At 75-days post-treatment, a substantial amount of DEHSPM remains in the pancreas: (parent+metabolites)75-days post-treatment=595 μm.
The nearly normal polyamine pools are mirrored by the anatomy.

[5] = group 2, tumor-bearing, IV QD 3, 4, 6-9, 14, 17, 18, total dosage 240 mg/kg
[6] = group 2, tumor-bearing, total dosage 240 mg/kg IV
[7] = group 4, tumor-bearing, IV QD 3-18, total dosage 205 mg/kg
[8] = group 4, tumor-bearing, total dosage 205 mg/kg IV
[9] = group 6, tumor-bearing, total dosage 102.5 mg/kg IV
[10] = group 3, NTB, IV QD 3, 4, 6-9, 14, 17, 18, total dosage 240 mg/kg
[11] = group 3, NTB, total dosage 240 mg/kg IV
[12] = group 5, NTB, IV QD 3-18, total dosage 205 mg/kg
[13] = group 5, NTB, total dosage 205 mg/kg IV
[14] = group 7, NTB, IV QD 3-18, total dosage 102.5 mg/kg
[15] = group 7, NTB, total dosage 102.5 mg/kg IV
[16] = 1-day post-treatment, equimolar dose
[17] = 75-days post-treatment, equimolar dose

CCNCCCCNCCCCNCCCCNCC [DEHSPM, reference compound]
Mean Body Wt. Loss [1, 5]: −11.2 g/mouse
Percent Body Wt. Loss [1, 5]: −38.0%
Day of Wt. Loss Nadir [1, 6]: 35 days
Drug Deaths (days of death) [1, 6]: 0/5
Mean Body Wt. Loss [1, 7]: −8.6 g/mouse
Percent Body Wt. Loss [1, 7]: −29.0%
Day of Wt. Loss Nadir [1, 8]: 35 days
Drug Deaths (days of death) [1, 8]: 0/5
Mean Body Wt. Loss ([1]; group 6, tumor-bearing, IV QD 3-18, total dosage 102.5 mg/kg): −0.4 g/mouse
Day of Wt. Loss Nadir [1, 9]: 7 days
Drug Deaths (days of death) [1, 9]: 0/5
Mean Body Wt. Loss [2, 10]: −8.5 g/mouse
Percent Body Wt. Loss [2, 10]: −30.0%
Day of Wt. Loss Nadir [2, 11]: 35 days
Drug Deaths (days of death) [2, 11]: 0/2
Mean Body Wt. Loss [2, 12]: −7.5 g/mouse
Percent Body Wt. Loss [2, 12]: −26.0%
Day of Wt. Loss Nadir [2, 13]: 35 days
Drug Deaths (days of death) [2, 13]: 0/2
Mean Body Wt. Loss [2, 14]: −1.0 g/mouse
Percent Body Wt. Loss [2, 14]: −3.0%
Day of Wt. Loss Nadir [2, 15]: 23 days
Drug Deaths (days of death) [2, 15]: 0/2
total amount of drug (parent+metabolites) in pancreas ([3]; 1-day post-treatment, dose equimolar to the (HO)2DEHSPM dosage): 951 μm
[SPD] in pancreas [3, 16]: 863 μm
[SPD] in pancreas, % of control [3, 16]: 30.6 % of control
[SPM] in pancreas [3, 16]: 2,770 μm
[SPM] in pancreas, % of control [3, 16]: 69.5 % of control
PUT in pancreas [3, 17]: 60 μm
[SPD] in pancreas [3, 17]: 1,572 μm
[SPD] in pancreas, % of control [3, 17]: 55.7 % of control
[SPM] in pancreas [3, 17]: 3,162 μm
[SPM] in pancreas, % of control [3, 17]: 79.3 % of control
drug (parent+metabolites) in pancreas [3, 17]: 595 μm
pancreas anatomy ([4]; 75-days post-treatment): essentially normal macroscopically and microscopically
exocrine and endocrine pancreatic functions [4]: appeared normal
